The source of these data is paper PMC12267714 (Nature Communications, 2025).

The conditions of this series: mouse, in vivo, 20 mg/kg.

SMILES strings stand for the structures. Counter-ions that a name gives are not always drawn.

In the case of `CN(C)C(=O)COC(=O)Cc1ccc(OC(=O)c2ccc(NC(=N)N)cc2)cc1` [camostat mesylate], the “level in the plasma after oral delivery” value was “no detectable level”.
